Experimental data as given in patent publication US6114326A, “Use of cabergoline in the treatment of restless legs syndrome” (priority 1999, dated 2000).
Where two headings read alike, the source gives them in different places.

What was measured:
[1] = test system: restless legs syndrome patients; details: in vivo; cited from earlier work
[2] = test system: restless legs syndrome patients; details: open clinical trials of opioids; cited from earlier work
[3] = cited from earlier work
[4] = test system: restless legs syndrome patients; details: cited from earlier work
[5] = test system: restless legs syndrome patients; details: 7.5 mg, cited from earlier work
[6] = test system: restless legs syndrome patients; assay: Prior treatment history of the trial patients
Method: See also, Stiasny K., Oertel W. H., Schuiler P. (1998). Cabergoline in RLS, ENS, Nice, Abstract.
Efficacy was assessed by polysomnography and subjective ratings. […] At study entry all patients were comedicated with domperidone (20 mg TID) and five were still under levodopa therapy (400-800 mg).
Subjects. Nine patients (seven women and two men, mean age 54.1±8.7, range 38.1-64.3 years) with idiopathic RLS for 23.1±13.7 years (range 5-47 years) participated. […] At study entry five patients were on levodopa with dosages ranging from 400-800 mg. […] The remaining four patients were off any specific RLS medication during baseline investigation. […] At baseline conditions the physician considered the patients to be extremely ill (2), very ill (4) or markedly ill (3).

[7] = test system: restless legs syndrome patients; details: cited from earlier work; remark: listed apart in the source

NCC1(CC(=O)O)CCCCC1 [gabapentin]
possible side effects [1]: dizziness, sleepiness, fatigue, increased appetite, and unsteadiness

C=CCN1CC[C@]23c4c5ccc(O)c4O[C@H]2C(=O)CC[C@@]3(O)[C@H]1C5 [naloxone]
reversal by naloxone (in words) [2]: reversible

CCCN1C[C@H](CSC)C[C@@H]2c3cccc4[nH]cc(c34)C[C@H]21 [Pergolide]
half-life ([3]; pergolide): 7 to 16 h
effect in patients who developed augmentation under levodopa ([4]; 6 month open label trial): some effect
patients who responded well to pergolide ([4]; Earley and Allen): 19 of 26
pergolide patients with augmentation ([4]; Earley and Allen): 4 of 26
side effects ([4]; pergolide with low dose L-dopa): orthostatic hypotension and gastrointestinal problems
patients suffering from augmentation ([4]; pergolide, Earley and Allen): 15%
augmentation under pergolide (in words) ([4]; two open trials, follow-up 6 to 28 and 2 to 39 months): to a lower degree and less severe
clinical improvement (in words) ([4]; with low dose L-dopa, patients not responding to L-dopa alone): clinical improvement

CC(C)C[C@H]1C(=O)N2CCC[C@H]2[C@]2(O)O[C@](NC(=O)[C@@H]3C=C4c5cccc6[nH]c(Br)c(c56)C[C@H]4N(C)C3)(C(C)C)C(=O)N12 [Bromocriptine]
patients with subjective improvement in restlessness and paresthesia compared to placebo ([5]; 1 to 3 hours prior to sleep, double blind crossover): 5 of 6
side effects ([5]; one patient): transient nasal stuffiness and lightheadedness
side effect under prior treatment ([6]; bromocriptine 5 mg, one patient): severe arterial hypotension

N[C@@H](Cc1ccc(O)c(O)c1)C(=O)O [L-dopa]
half-life ([3]; levodopa, regular release): 2 to 4 h
benefit of previous levodopa therapy ([6]; all patients, standard or standard and slow release): partial benefit
suppression of RLS (in words) ([7]; 100 mg with carbidopa 10 mg, most cases): completely suppresses RLS
rebound (augmentation) of PLMS in last part of the night ([7]; 100 mg with carbidopa 10 mg): often observed
rate of augmentation ([7]; 12 week study, Callado-Seidel et al.): 27%
patients with augmentation reporting 3 major symptoms of increased severity ([7]; 22 RLS patients with augmentation): 100%
rate of augmentation in PLMS patients ([7]; Allen and Earley, Sleep 1996): 31%
rate of augmentation in RLS patients ([7]; Allen and Earley, Sleep 1996): 82%
RLS patients with augmentation requiring a medication change ([7]; Allen and Earley): 50%
patients who responded to levodopa ([7]; Earley and Allen): 21 of 51
time until patients no longer respond well (tolerance) ([7]; L-Dopa or L-Dopa plus dopa-decarboxylase-inhibitor, usually): ≤ 6 months
patients reporting increased movement in other body parts ([7]; RLS patients with augmentation): 7%
tolerance (in words) ([7]; RLS): common
reduction of RLS at bedtime and PLMS throughout the night (in words) ([7]; double-blind PSG study, administered twice at night): significant reduction
efficacy in RLS (in words) ([7]; with peripheral carboxylase inhibitor, 10:1 ratio): effective
